{"source": "patent US5919901A", "about": "(priority 1996, dated 1999)", "key": {"[1]": {"test_system": "Adult male Wistar rats", "assay": "In vivo feeding after ICV injection, rodent chow consumed in 2 hours", "set-up": "species or system rat", "details": "for Feeding (g/2 h): rats, ICV, 1-6 nmoles peptide, chow consumed in 2 hours, saline <3 g/2 hours", "experimental": "Adult male Wistar rats were surgically implanted with a chronic intracerebral ventricular (ICV) cannula (Plastic Products, Roanoke, Va.) using a stereotaxic instrument. Several days after the surgery, 1-6 nmoles of each peptide (or saline) was injected into the lateral ventricle of 4-12 rats in a volume of 5-10 μl The quantity of rodent chow consumed in a 2 hour period was measured."}, "[2]": {"biological_target": "Rat Y4/PP1 (clone) (Rattus norvegicus, UniProt Q63447)", "sequence (Q63447 whole entry)": "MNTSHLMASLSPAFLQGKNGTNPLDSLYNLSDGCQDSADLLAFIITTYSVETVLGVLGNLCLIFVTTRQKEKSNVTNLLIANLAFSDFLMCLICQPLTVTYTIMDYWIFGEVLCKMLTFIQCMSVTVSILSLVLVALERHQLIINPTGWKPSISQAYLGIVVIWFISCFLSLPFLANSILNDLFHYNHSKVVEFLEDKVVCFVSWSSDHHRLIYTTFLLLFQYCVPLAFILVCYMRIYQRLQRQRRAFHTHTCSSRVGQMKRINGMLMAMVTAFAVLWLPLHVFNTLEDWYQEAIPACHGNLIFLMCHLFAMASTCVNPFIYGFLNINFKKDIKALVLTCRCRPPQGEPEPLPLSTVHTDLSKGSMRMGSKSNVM", "assay": "Rat Y4/PP1 [125I]PP binding assay"}}}
{"smiles": "CC[C@H](C)[C@H](NC(=O)[C@H](Cc1ccc(O)cc1)NC(=O)[C@@H](N)Cc1c[nH]cn1)C(=O)N[C@@H](CC(N)=O)C(=O)N[C@@H](CC(C)C)C(=O)N[C@H](C(=O)N[C@H](C(=O)N[C@@H](CCCNC(=N)N)C(=O)N[C@@H](CCC(N)=O)C(=O)N[C@@H](CCCNC(=N)N)C(=O)N[C@@H](Cc1ccc(O)cc1)C(N)=O)[C@@H](C)O)[C@@H](C)CC", "note": "[r/h(26-36)NPY, (26-36)NPY]", "values": [{"measurement": "Feeding (g/2 h)", "setting": "[1]", "result": "< 3", "unit": "g/2 h"}]}
{"smiles": "CC[C@H](C)[C@H](NC(=O)[C@H](Cc1ccc(O)cc1)NC(=O)[C@H](Cc1c[nH]cn1)NC(=O)[C@H](CCCNC(=N)N)NC(=O)[C@H](CC(C)C)NC(=O)[C@H](C)NC(=O)[C@@H](N)CO)C(=O)N[C@@H](CC(N)=O)C(=O)N[C@@H](CC(C)C)C(=O)N[C@H](C(=O)N[C@H](C(=O)N[C@@H](CCCNC(=N)N)C(=O)N[C@@H](CCC(N)=O)C(=O)N[C@@H](CCCNC(=N)N)C(=O)N[C@@H](Cc1ccc(O)cc1)C(N)=O)[C@@H](C)O)[C@@H](C)CC", "note": "[r/h(22-36)NPY, (22-36)NPY]", "values": [{"measurement": "Feeding (g/2 h)", "setting": "[1]", "result": "< 3", "unit": "g/2 h"}]}
{"smiles": "CC[C@H](C)[C@H](NC(=O)[C@H](Cc1ccc(O)cc1)NC(=O)[C@H](CCCNC(=N)N)NC(=O)[C@H](CCCNC(=N)N)NC(=O)[C@H](CC(C)C)NC(=O)[C@H](CC(=O)O)NC(=O)[C@H](C)NC(=O)[C@H](C)NC(=O)[C@H](Cc1ccc(O)cc1)NC(=O)[C@H](CCC(N)=O)NC(=O)[C@H](C)NC(=O)[C@H](CCSC)NC(=O)[C@H](CCC(N)=O)NC(=O)[C@H](CCC(=O)O)NC(=O)[C@@H]1CCCN1C(=O)[C@@H](NC(=O)[C@H](C)NC(=O)[C@H](CC(N)=O)NC(=O)[C@H](CC(=O)O)NC(=O)CNC(=O)[C@@H]1CCCN1C(=O)[C@H](Cc1ccc(O)cc1)NC(=O)[C@@H](NC(=O)[C@@H]1CCCN1C(=O)[C@H](CCC(=O)O)NC(=O)[C@H](CC(C)C)NC(=O)[C@@H]1CCCN1C(=O)[C@H](C)N)C(C)C)[C@@H](C)O)C(=O)N[C@@H](CC(N)=O)C(=O)N[C@@H](CCSC)C(=O)N[C@@H](CC(C)C)C(=O)N[C@H](C(=O)N[C@@H](CCCNC(=N)N)C(=O)N1CCC[C@H]1C(=O)N[C@@H](CCCNC(=N)N)C(=O)N[C@@H](Cc1ccc(O)cc1)C(N)=O)[C@@H](C)O", "note": "[rPP, pancreatic polypeptide]", "values": [{"measurement": "affinity for the rat Y4/PP1 receptor", "setting": "[2]", "result": "very high affinity"}, {"measurement": "feeding response in rats", "setting": "[1]; administered ICV to rats", "result": "does not induce much feeding"}, {"measurement": "Feeding (g/2 h)", "setting": "[1]", "result": "< 3", "unit": "g/2 h"}]}
{"smiles": "CC[C@H](C)[C@H](NC(=O)[C@H](Cc1ccc(O)cc1)NC(=O)[C@H](CCCNC(=N)N)NC(=O)[C@H](CCCNC(=N)N)NC(=O)[C@H](CC(C)C)NC(=O)[C@H](CC(=O)O)NC(=O)[C@H](C)NC(=O)[C@H](C)NC(=O)[C@H](Cc1ccc(O)cc1)NC(=O)[C@H](CCC(N)=O)NC(=O)[C@H](C)NC(=O)[C@H](CCSC)NC(=O)[C@H](CCC(N)=O)NC(=O)[C@H](CCC(=O)O)NC(=O)[C@@H]1CCCN1C(=O)[C@@H](NC(=O)[C@H](C)NC(=O)[C@H](CC(N)=O)NC(=O)[C@H](CC(=O)O)NC(=O)CNC(=O)[C@@H]1CCCN1C(=O)[C@H](Cc1ccc(O)cc1)NC(=O)[C@@H](NC(=O)[C@@H]1CCCN1C(=O)[C@H](CCC(=O)O)NC(=O)[C@H](CC(C)C)NC(=O)[C@@H]1CCCN1C(=O)[C@H](C)N)C(C)C)[C@@H](C)O)C(=O)N[C@@H](CC(N)=O)C(=O)N[C@@H](CCSC)C(=O)N[C@@H](CC(C)C)C(=O)N[C@H](C(=O)N[C@@H](CCCNC(=N)N)C(=O)N1CCC[C@H]1C(=O)N[C@@H](CCCNC(=N)N)C(=O)N[C@@H](Cc1ccc(O)cc1)C(N)=O)[C@@H](C)O", "note": "[hPP, pancreatic polypeptide]", "values": [{"measurement": "Feeding (g/2 h)", "setting": "[1]", "result": "> 5", "unit": "g/2 h"}]}
